Experiments:
[1] = Binding affinity to Methyl-lysine (unknown origin) assessed as dissociation constant; parameters: species or system Homo sapiens
[2] = Binding affinity to trimethyl-lysine (unknown origin) assessed as dissociation constant; parameters: species or system Homo sapiens
[3] = Inhibition of influenza A virus A/H3N2 neuraminidase
HT-29 = test: Anticancer activity against human HT-29 cells assessed as reduction in cell viability incubated for 24 hrs by MTT assay; type: functional, cell-based; conditions: HT-29, 24 h
Caco-2 = test: Anticancer activity against human Caco-2 cells assessed as inhibition of cell viability; type: functional, cell-based
bovine serum albumin = bovine serum albumin (Bos taurus, UniProt P02769); test: Inhibition of bovine serum albumin at 1 uM by SPR analysis relative to control; conditions: cattle
Sequence of bovine serum albumin (P02769 whole entry): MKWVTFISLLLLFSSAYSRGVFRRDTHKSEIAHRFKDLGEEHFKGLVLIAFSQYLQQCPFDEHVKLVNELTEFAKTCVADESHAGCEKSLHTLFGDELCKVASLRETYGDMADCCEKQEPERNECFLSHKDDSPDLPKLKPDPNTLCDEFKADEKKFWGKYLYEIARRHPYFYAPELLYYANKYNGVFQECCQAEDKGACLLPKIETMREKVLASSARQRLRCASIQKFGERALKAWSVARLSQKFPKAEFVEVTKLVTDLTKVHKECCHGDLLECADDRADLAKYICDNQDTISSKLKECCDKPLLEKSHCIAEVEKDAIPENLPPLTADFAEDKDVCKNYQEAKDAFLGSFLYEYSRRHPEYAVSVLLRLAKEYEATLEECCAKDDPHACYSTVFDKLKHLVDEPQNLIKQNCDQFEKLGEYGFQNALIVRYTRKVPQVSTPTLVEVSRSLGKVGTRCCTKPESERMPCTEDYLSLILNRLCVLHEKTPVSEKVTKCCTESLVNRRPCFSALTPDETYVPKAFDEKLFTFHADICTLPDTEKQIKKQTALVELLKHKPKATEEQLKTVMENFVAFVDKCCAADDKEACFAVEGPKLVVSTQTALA

O=S(=O)(O)c1cc2c(O)c(c1)Cc1cc(S(=O)(=O)O)cc(c1O)Cc1cc(S(=O)(=O)O)cc(c1O)Cc1cc(S(=O)(=O)O)cc(c1O)C2
Kd [1]: 15.6 µM
Kd [2]: 27 µM

O=S(=O)(O)c1cc2c(O)c(c1)Cc1cc(S(=O)(=O)O)cc(c1O)Cc1cc(S(=O)(=O)O)cc(c1O)Cc1cc(S(=O)(=O)O)cc(c1O)Cc1cc(S(=O)(=O)O)cc(c1O)Cc1cc(S(=O)(=O)O)cc(c1O)Cc1cc(S(=O)(=O)O)cc(c1O)Cc1cc(S(=O)(=O)O)cc(c1O)C2
IC50 [3]: 6.4 µM

CCCCCCOc1c2cc(P(=O)(O)O)cc1Cc1cc(P(=O)(O)O)cc(c1OCCCCCC)Cc1cc(P(=O)(O)O)cc(c1OCCCCCC)Cc1cc(P(=O)(O)O)cc(c1OCCCCCC)C2
IC50 (HT-29): 8.79 µM
IC50 (Caco-2): 3.88 µM

CC[C@@]1(O)C(=O)OCc2c1cc1n(c2=O)Cc2cc3ccccc3nc2-1 [CAMPTOTHECIN]
inhibition at 1 µM (bovine serum albumin): 98%

COc1cccc2c1C(=O)c1c(O)c3c(c(O)c1C2=O)C[C@@](O)(C(=O)CO)C[C@@H]3O[C@H]1C[C@H](N)[C@H](O)[C@H](C)O1 [DOXORUBICIN]
inhibition at 1 µM (bovine serum albumin): 87%

CO[C@@]12[C@H](COC(N)=O)C3=C(C(=O)C(C)=C(N)C3=O)N1C[C@@H]1N[C@@H]12 [MITOMYCIN]
inhibition at 1 µM (bovine serum albumin): 94%
